Counter-ions that a name gives are not always drawn.
System: 60 cancer cell lines (NCI 60 cancer cell line series)
Test: NCI-DTP in vitro cancer screen, sulforhodamine B (SRB) growth inhibition, 48 hour exposure
Type: cell-based, human
Parameters: key to sensitivity class Ovarian OVCAR-8 CL6005 / sensitivity class Ovarian SK-OV-3 CL6011 / sensitivity class Prostate DU-145 CL11003 / sensitivity class NSCLC NCI-H522 CL1003 / sensitivity class Ovarian IGROV1 CL6010 / sensitivity class Ovarian OVCAR-4 CL6002 / sensitivity class Prostate PC-3(I) CL11001 / sensitivity class Renal A498 CL9013 / sensitivity class Renal SN12C CL9008: sensitivity class: 1 = Low, 2 = Medium, 3 = High
Description: Cancer Cell Line Preparation. Sixty cancer cell lines were obtained from the National Cancer Institute Developmental Therapeutics Program (NCI-DTP). Procedures for growing cells and testing compounds have been described previously (Scudiero et al., Cancer Res. 1988, 48:4827-4833; Stinson et al., Anticancer Res.; Myers et al., Electrophoresis 1997, 18:647-653). Cells are plated on day 0 at a density individualized for each cell line so that they will generally be sub-confluent at the end of the assay period. On day 1, a compound is added in the format for a duplicate-well, 5-dose, ten-fold interval dose response study.
No-drug, no-cell and no-growth controls are included. On day 3 the cells are processed for staining with sulforhodamine B (SRB), which reflects the amount of cell mass present at the end of a 48 hour exposure to the test agent. From dose response curves based on the SRB data, various parameters can be determined. The one used in the present study is the G15o, defined as the concentration of compound required to inhibit growth of the cell line by 50%. More precisely, the quantity used in the calculation to be described is the potency measure -log{GI50}.
Activity database (A). Table IA, consisting of the growth inhibition (GI5o) values for the 60 cell lines and 24 compounds, was created from the NCI-DTP in vitro cancer screen database. This subset of compounds was selected from the larger 23,000 compound database available from the DTP. The compounds were selected on the basis of their known mechanism of action and chemical structure. The average potency—log{GI50} was extracted from the comma-delimited text files available through the Web at http://www.nci.nih.gov/intra/lmp/jnwbio.htmrl. Subsequently, these log{GI5o} values were inspected manually and classified as indicating either Low, Medium or High sensitivity to each compound.

For `CC[C@]1(O)C[C@@H]2CN(CCc3c([nH]c4ccccc34)[C@@](C(=O)OC)(c3cc4c(cc3OC)N(C)[C@H]3[C@@](O)(C(=O)OC)[C@H](OC(C)=O)[C@]5(CC)C=CCN6CC[C@]43[C@@H]65)C2)C1` [Vinblastine sulfate], the “classification of cell line as Low(1), Medium(2) or High(3) sensitivity to compound” value (shortened to “classification of cell line”) (CNS SF-539 CL12016) was 2, the “classification of cell line” value (CNS SNB-19 (CL12002)) was 2 and the “classification of cell line” value (CNS U251(I) CL12009) was 2. The “classification of cell line” value (Colon HCC-2998 (CL4002)) was 2, the “classification of cell line” value (Colon HCT-15 CL4015) was 1 and the “classification of cell line” value (Colon KM12 (CL4017)) was 2. For the same compound, the “classification of cell line” value (Colon SW-620 (CL4009)) was 2, the “classification of cell line” value (Leukemia CCRF-CEM(I) (CL7003)) was 2 and the “classification of cell line” value (Leukemia HL-60(I) (CL7008)) was 3. The “classification of cell line” value (Leukemia MOLT-4 (CL7006)) was 2, the “classification of cell line” value (Leukemia SR CL7019) was 3 and the “classification of cell line” value (Melanoma M14 (CL10014)) was 2. The “classification of cell line” value (Melanoma MALME-3M CL10002) was 2, the “classification of cell line” value (Melanoma SK-MEL-2 (CL10005)) was 2 and the “classification of cell line” value (Melanoma SK-MEL-5 (CL10007)) was 3. For the same compound, the “classification of cell line” value (Melanoma SK-MEL-28 (CL10008)) was 2, the “classification of cell line” value (Melanoma UACC-62 (CL10020)) was 3 and the “classification of cell line” value (NSCLC A549/ATCC (CL1004)) was 2. The “classification of cell line” value (NSCLC EKVX (CL1008)) was 1, the “classification of cell line” value (NSCLC HOP-62 (CL1026)) was 2 and the “classification of cell line” value (NSCLC HOP-92 (CL1029)) was 2. The “classification of cell line” value (NSCLC NCI-H226 CL1013) was 2, the “sensitivity class NSCLC NCI-H23(I) CL1001” value (cell line NSCLC NCI-H23(I), CL1001) was 2 and the “sensitivity class NSCLC NCI-H332M CL1017” value (cell line NSCLC NCI-H332M, CL1017) was 2. The “sensitivity class NSCLC NCI-H460 CL1021” value (cell line NSCLC NCI-H460, CL1021) was 2, the “sensitivity class NSCLC NCI-H522 CL1003” value (cell line NSCLC NCI-H522, CL1003) was 3 and the “sensitivity class Ovarian IGROV1 CL6010” value (cell line Ovarian IGROV1, CL6010) was 2. For the same compound, the “sensitivity class Ovarian OVCAR-3 CL6001” value (cell line Ovarian OVCAR-3, CL6001) was 3, the “sensitivity class Ovarian OVCAR-8 CL6005” value (cell line Ovarian OVCAR-8, CL6005) was 2 and the “sensitivity class Ovarian SK-OV-3 CL6011” value (cell line Ovarian SK-OV-3, CL6011) was 2. For the same compound, the “sensitivity class Renal 786-O CL9018” value (cell line Renal 786-O, CL9018) was 2, the “sensitivity class Renal CAKI-1 CL9015” value (cell line Renal CAKI-1, CL9015) was 2 and the “sensitivity class Renal RXF-393 CL9016” value (cell line Renal RXF-393, CL9016) was 2. For the same compound, the “sensitivity class Renal SN12C CL9008” value (cell line Renal SN12C, CL9008) was 2, the “sensitivity class Renal TK10 CL9024” value (cell line Renal TK10, CL9024) was 1 and the “sensitivity class Renal UO-31 CL9004” value (cell line Renal UO-31, CL9004) was 1.

Source: patent US20020051978A1, “Methods and compositions for the identification, assessment, prevention and therapy of human cancers” (priority 2000, published 2002)
